Among the test systems are HOP-62 NSCLC; OVCAR-5 ovarian; ACHN renal; HT29 colon; SNB-19 CNS; M14 melanoma; UACC-257 melanoma; SF-539 CNS.
Test in all cases: NCI-60 cell line screen, 48 h

Several values for one entry are separate records, joined by “and”; a condition that tells them apart may be missing. Equal values may be shown once.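 Five concentrations, 48 hours, 96-well plates. GI50 is the concentration that inhibits growth by half. TGI denotes the concentration required for complete inhibition of growth.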

Consider `O/N=C1/C(=C/c2ccc(OCc3ccccc3)cc2)CCCC1C(NO)c1ccc(OCc2ccccc2)cc1` (stereo not drawn), for which the TGI in the assay on HOP-62 NSCLC, with OVCAR-5 ovarian, with ACHN renal, with HT29 colon, in the assay on SNB-19 CNS and in the assay with M14 melanoma was above 100 µM throughout. The TGI in the assay with UACC-257 melanoma and with SF-539 CNS was above 100 µM in each case.

For the molecule `CCCCCNC(=O)CCCCCCCCCCCNC(=O)CCCCCCCCCCN1C=CC(=CC=C2C=CC(=O)C=C2)C=C1`, the TGI with HOP-62 NSCLC, in the assay with OVCAR-5 ovarian, in the assay with ACHN renal, in the assay on HT29 colon, in the assay with SNB-19 CNS and in the assay on M14 melanoma was above 100 µM in each case. Also, the TGI with UACC-257 melanoma was 88.7 µM; in the assay on SF-539 CNS it was above 100 µM.

`O=C1Nc2ccc(Cl)cc2/C1=N/c1nc(-c2ccc(Cl)cc2)cs1`: the GI50 with OVCAR-5 ovarian was 1.91 µM; with HT29 colon, 1.87 µM; in the assay with M14 melanoma it was 1.4 µM. For the same molecule, the TGI in the assay on OVCAR-5 ovarian came to 4.43 µM; in the assay on HT29 colon it was 5.34 µM; with M14 melanoma, 2.82 µM.

Regarding `CC(=O)NC(CCCNC(=O)OCc1ccccc1)C(=O)NCc1ccccc1` (stereo not drawn), the TGI in the assay on HOP-62 NSCLC, in the assay on OVCAR-5 ovarian, with ACHN renal, in the assay with HT29 colon, with SNB-19 CNS and with M14 melanoma was above 100 µM throughout. Moreover, the TGI in the assay on UACC-257 melanoma and in the assay on SF-539 CNS was above 100 µM each time.

As for `Cc1ccccc1NC(=O)C1C(=O)N(c2ccccc2C)C(=O)/C1=N\NC(N)=O` (stereo not drawn), the TGI in the assay with HOP-62 NSCLC, in the assay with OVCAR-5 ovarian, in the assay with ACHN renal, in the assay on HT29 colon, in the assay on SNB-19 CNS and in the assay on M14 melanoma was above 100 µM each time. Moreover, the TGI in the assay with UACC-257 melanoma and in the assay with SF-539 CNS was above 100 µM in each case.

In the case of `CN1S(=O)(=O)N(C)P12(N=P(CP(=NP13(N(C)S(=O)(=O)N1C)N(C)S(=O)(=O)N3C)(c1ccccc1)c1ccccc1)(c1ccccc1)c1ccccc1)N(C)S(=O)(=O)N2C`, the TGI in the assay with HOP-62 NSCLC, with OVCAR-5 ovarian, in the assay with ACHN renal, in the assay on HT29 colon, in the assay on SNB-19 CNS and in the assay with M14 melanoma was above 100 µM each time. Besides, the TGI with UACC-257 melanoma and in the assay on SF-539 CNS was above 100 µM in each case.

`CN(C)c1ccc(/C=c2/sc3nc(=O)c(-c4ccccc4NC(=O)C(F)(F)F)nn3c2=O)cc1`: the TGI with HOP-62 NSCLC, in the assay with OVCAR-5 ovarian, in the assay with ACHN renal, in the assay with HT29 colon, in the assay with SNB-19 CNS and in the assay on M14 melanoma was above 100 µM throughout. This molecule returned a TGI with SF-539 CNS above 100 µM.

Turning to `CCCCC(C(=O)C(=O)Nc1ccccc1CC)C(=O)C(C)C` (stereo not drawn), the TGI in the assay on OVCAR-5 ovarian, in the assay on ACHN renal, with HT29 colon, in the assay with SNB-19 CNS, in the assay on M14 melanoma and in the assay with UACC-257 melanoma was above 100 µM each time. In addition, the TGI with SF-539 CNS was above 100 µM.

In the case of `O=C(CC1(O)C(=O)Nc2c(Cl)ccc(Cl)c21)c1ccc(Cl)cc1` (stereo not drawn), the TGI with HOP-62 NSCLC was above 100 µM; with OVCAR-5 ovarian, above 100 µM; with ACHN renal, 38.7 µM; with HT29 colon it was 73.2 µM; with SNB-19 CNS it was above 100 µM; with M14 melanoma, 69.1 µM. Also, the figures for the TGI in the assay with UACC-257 melanoma and in the assay on SF-539 CNS were 94.7 µM and 50.6 µM, respectively.

With `O=C1c2ccccc2C2(O)N(c3ccccc3)C(=S)N(c3ccccc3)C12O` (stereo not drawn), the TGI with HOP-62 NSCLC, in the assay on OVCAR-5 ovarian, with ACHN renal, in the assay with HT29 colon, with SNB-19 CNS and in the assay with M14 melanoma was above 100 µM throughout. The TGI with UACC-257 melanoma and in the assay with SF-539 CNS was above 100 µM each time.

Regarding `CC(C)(C)c1ccc(OCCOCCOc2ccc(C(C)(C)C)cc2S(N)(=O)=O)c(S(N)(=O)=O)c1`, the TGI in the assay with HOP-62 NSCLC, with OVCAR-5 ovarian, in the assay with ACHN renal, with HT29 colon, with SNB-19 CNS and in the assay with M14 melanoma was above 100 µM in each case. Moreover, the TGI in the assay with UACC-257 melanoma and with SF-539 CNS was above 100 µM in each case.

As for `O=c1c2cc(Br)ccc2nc(CNc2ccccc2)n1-c1ccccc1`, the TGI in the assay with HOP-62 NSCLC was above 60.6 µM; with OVCAR-5 ovarian, above 100 µM; in the assay on ACHN renal, above 49.9 µM; with HT29 colon, 46.2 µM; in the assay with SNB-19 CNS it was above 72.1 µM; with M14 melanoma, 47.6 µM. The TGI came out at 98 µM with UACC-257 melanoma and 32.7 µM with SF-539 CNS.

On to `N#Cc1c(CC(=O)O)cc(=O)n2c1[nH]c1ccccc12`, for which the TGI with HOP-62 NSCLC, in the assay on OVCAR-5 ovarian, in the assay on ACHN renal, in the assay with HT29 colon, in the assay with SNB-19 CNS and with M14 melanoma was above 100 µM each time. Further, the TGI in the assay on UACC-257 melanoma and with SF-539 CNS was above 100 µM each time.

Turning to `CCOC(=O)C1(C)CCC(C(=O)OC)C1=O` (stereo not drawn), the TGI with HOP-62 NSCLC, in the assay with OVCAR-5 ovarian, in the assay on ACHN renal, in the assay with HT29 colon, in the assay on SNB-19 CNS and with M14 melanoma was above 100 µM in each case. Further, the TGI in the assay on UACC-257 melanoma and in the assay on SF-539 CNS was above 100 µM each time.

For the molecule `CC(C)(C)C1CCC(O)(c2ccccc2)CC1` (stereo not drawn), the TGI with HOP-62 NSCLC is above 100 µM; with OVCAR-5 ovarian, above 100 µM; in the assay with ACHN renal, > 100 µM and 59.9 µM; with HT29 colon, > 100 µM and 30.2 µM; in the assay with SNB-19 CNS, above 100 µM; in the assay with M14 melanoma, > 100 µM and 42.8 µM. For the same molecule, the TGI was > 100 µM and 48.2 µM in the assay with UACC-257 melanoma; > 100 µM and 45.4 µM in the assay with SF-539 CNS.

Turning to `COC(=O)C1CC(=O)O[C@H]1c1ccc(OC)c(OC)c1` (stereo partly drawn), the TGI in the assay with HOP-62 NSCLC, with OVCAR-5 ovarian, in the assay with ACHN renal, with HT29 colon, in the assay on M14 melanoma and in the assay with UACC-257 melanoma was above 100 µM throughout. For the same molecule, the TGI in the assay with SF-539 CNS was above 100 µM.

Values taken from PubChem BioAssay (NCI).
